How the values were obtained:
[1] = tested on: Tyrosine-protein kinase ABL1 (Homo sapiens), P00519 [M351T]; details: Compound concentration 1000.0 nM
[2] = target: 5'-AMP-activated protein kinase catalytic subunit alpha-1 (Homo sapiens) (UniProt Q13131); details: Compound concentration 1000.0 nM
[3] = target: Mitogen-activated protein kinase kinase kinase 5 (Homo sapiens) (UniProt Q99683); details: Compound concentration 1000.0 nM
[4] = target: Bone morphogenetic protein receptor type-1B (Homo sapiens) (UniProt O00238); details: Compound concentration 1000.0 nM
[5] = target: Mitotic checkpoint serine/threonine-protein kinase BUB1 (Homo sapiens) (UniProt O43683); details: Compound concentration 1000.0 nM
[6] = target: Calcium/calmodulin-dependent protein kinase type II subunit beta (Homo sapiens) (UniProt Q13554); details: Compound concentration 1000.0 nM
[7] = target: Cyclin-dependent kinase 4 (Homo sapiens) (UniProt P11802); details: Compound concentration 1000.0 nM
[8] = target: Cyclin-dependent kinase-like 2 (Homo sapiens) (UniProt Q92772); details: Compound concentration 1000.0 nM
[9] = target: Dual specificity protein kinase CLK3 (Homo sapiens) (UniProt P49761); details: Compound concentration 1000.0 nM
[10] = target: Death-associated protein kinase 3 (Homo sapiens) (UniProt O43293); details: Compound concentration 1000.0 nM
[11] = target: Serine/threonine-protein kinase MRCK gamma (Homo sapiens) (UniProt Q6DT37); details: Compound concentration 1000.0 nM
[12] = tested on: Epidermal growth factor receptor (Homo sapiens), P00533 [G719C]; details: Compound concentration 1000.0 nM
[13] = tested on: Epidermal growth factor receptor (Homo sapiens), P00533 [UNDEFINED MUTATION]; details: Compound concentration 1000.0 nM
[14] = target: Ephrin type-A receptor 6 (Homo sapiens) (UniProt Q9UF33); details: Compound concentration 1000.0 nM
[15] = target: Mitogen-activated protein kinase 15 (Homo sapiens) (UniProt Q8TD08); details: Compound concentration 1000.0 nM
[16] = target: Fibroblast growth factor receptor 4 (Homo sapiens) (UniProt P22455); details: Compound concentration 1000.0 nM
[17] = target: Rhodopsin kinase GRK1 (Homo sapiens) (UniProt Q15835); details: Compound concentration 1000.0 nM
[18] = target: Inhibitor of nuclear factor kappa-B kinase subunit alpha (Homo sapiens) (UniProt O15111); details: Compound concentration 1000.0 nM
[19] = target: Inhibitor of nuclear factor kappa-B kinase subunit epsilon (Homo sapiens) (UniProt Q14164); details: Compound concentration 1000.0 nM
[20] = target: Serine/threonine-protein kinase MARK2 (Homo sapiens) (UniProt Q7KZI7); details: Compound concentration 1000.0 nM
[21] = target: Tyrosine-protein kinase Mer (Homo sapiens) (UniProt Q12866); details: Compound concentration 1000.0 nM
[22] = target: Serine/threonine-protein kinase 24 (Homo sapiens) (UniProt Q9Y6E0); details: Compound concentration 1000.0 nM
[23] = target: Myosin light chain kinase family member 4 (Homo sapiens) (UniProt Q86YV6); details: Compound concentration 1000.0 nM
[24] = target: Serine/threonine-protein kinase PAK 3 (Homo sapiens) (UniProt O75914); details: Compound concentration 1000.0 nM
[25] = target: 3-phosphoinositide-dependent protein kinase 1 (Homo sapiens) (UniProt O15530); details: Compound concentration 1000.0 nM
[26] = tested on: Phosphatidylinositol 4,5-bisphosphate 3-kinase catalytic subunit alpha isoform (Homo sapiens), P42336 [E545A]; details: Compound concentration 1000.0 nM
[27] = tested on: Phosphatidylinositol 4,5-bisphosphate 3-kinase catalytic subunit alpha isoform (Homo sapiens), P42336 [E545K]; details: Compound concentration 1000.0 nM
[28] = target: 1-phosphatidylinositol 3-phosphate 5-kinase (Homo sapiens) (UniProt Q9Y2I7); details: Compound concentration 1000.0 nM
[29] = target: Membrane-associated tyrosine- and threonine-specific cdc2-inhibitory kinase (Homo sapiens) (UniProt Q99640); details: Compound concentration 1000.0 nM
[30] = target: Ribosomal protein S6 kinase alpha-2 (Homo sapiens) (UniProt Q15349); details: Compound concentration 1000.0 nM
[31] = target: Serine/threonine-protein kinase Sgk1 (Homo sapiens) (UniProt O00141); details: Compound concentration 1000.0 nM
[32] = target: SRSF protein kinase 1 (Homo sapiens) (UniProt Q96SB4); details: Compound concentration 1000.0 nM
[33] = target: Serine/threonine-protein kinase 33 (Homo sapiens) (UniProt Q9BYT3); details: Compound concentration 1000.0 nM
[34] = target: Serine/threonine-protein kinase TBK1 (Homo sapiens) (UniProt Q9UHD2); details: Compound concentration 1000.0 nM
[35] = target: Tyrosine-protein kinase Tec (Homo sapiens) (UniProt P42680); details: Compound concentration 1000.0 nM
[36] = target: TGF-beta receptor type-2 (Homo sapiens) (UniProt P37173); details: Compound concentration 1000.0 nM
[37] = target: High affinity nerve growth factor receptor (Homo sapiens) (UniProt P04629); details: Compound concentration 1000.0 nM
[38] = target: NT-3 growth factor receptor (Homo sapiens) (UniProt Q16288); details: Compound concentration 1000.0 nM
[39] = target: Non-receptor tyrosine-protein kinase TYK2 (Homo sapiens) (UniProt P29597); details: Compound concentration 1000.0 nM
[40] = target: Serine/threonine-protein kinase WNK1 (Homo sapiens) (UniProt Q9H4A3); details: Compound concentration 1000.0 nM
[41] = target: Serine/threonine-protein kinase WNK3 (Homo sapiens) (UniProt Q9BYP7); details: Compound concentration 1000.0 nM
[42] = target: Serine/threonine-protein kinase 25 (Homo sapiens) (UniProt O00506); details: Compound concentration 1000.0 nM
[43] = target: Kappa-type opioid receptor (Homo sapiens) (UniProt P41145); details: Compound concentration 10.0 uM
[44] = target: Alpha-2C adrenergic receptor (Homo sapiens) (UniProt P18825); details: Compound concentration 10.0 uM
[45] = target: Sigma non-opioid intracellular receptor 1 (Homo sapiens) (UniProt Q99720); details: Compound concentration 10.0 uM

NT-3 growth factor receptor (Homo sapiens), sequence (Q16288 32-839 limits assumed): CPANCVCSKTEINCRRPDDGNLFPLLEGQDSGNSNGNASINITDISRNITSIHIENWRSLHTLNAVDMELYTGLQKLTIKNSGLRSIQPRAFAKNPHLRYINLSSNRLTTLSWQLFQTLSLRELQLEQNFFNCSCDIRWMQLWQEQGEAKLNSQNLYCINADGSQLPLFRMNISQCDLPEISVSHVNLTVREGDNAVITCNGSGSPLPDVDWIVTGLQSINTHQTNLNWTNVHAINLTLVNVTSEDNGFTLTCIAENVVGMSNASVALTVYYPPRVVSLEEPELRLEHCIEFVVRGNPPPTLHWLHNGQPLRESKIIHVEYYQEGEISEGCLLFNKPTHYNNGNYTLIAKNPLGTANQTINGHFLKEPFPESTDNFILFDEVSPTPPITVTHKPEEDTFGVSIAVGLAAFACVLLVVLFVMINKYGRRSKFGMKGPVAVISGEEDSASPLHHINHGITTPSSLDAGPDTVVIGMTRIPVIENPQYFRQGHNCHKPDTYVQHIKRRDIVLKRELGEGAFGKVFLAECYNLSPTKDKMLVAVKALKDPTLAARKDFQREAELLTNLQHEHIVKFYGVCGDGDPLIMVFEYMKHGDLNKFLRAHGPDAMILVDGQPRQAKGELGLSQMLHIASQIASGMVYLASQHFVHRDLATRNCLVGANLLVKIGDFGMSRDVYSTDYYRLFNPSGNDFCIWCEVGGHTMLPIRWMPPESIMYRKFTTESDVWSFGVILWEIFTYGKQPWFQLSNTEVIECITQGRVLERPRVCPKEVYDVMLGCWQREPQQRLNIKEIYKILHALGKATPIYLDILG
Cyclin-dependent kinase 4 (Homo sapiens), sequence (P11802 whole entry): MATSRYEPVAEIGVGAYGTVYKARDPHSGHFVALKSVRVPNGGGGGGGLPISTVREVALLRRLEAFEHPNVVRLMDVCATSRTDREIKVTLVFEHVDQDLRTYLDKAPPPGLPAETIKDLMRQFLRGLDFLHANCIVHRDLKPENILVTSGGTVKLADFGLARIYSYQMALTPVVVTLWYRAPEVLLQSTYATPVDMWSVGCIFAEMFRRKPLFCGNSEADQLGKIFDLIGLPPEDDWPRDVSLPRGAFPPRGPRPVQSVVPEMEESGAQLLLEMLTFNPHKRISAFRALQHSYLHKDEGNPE
Mitogen-activated protein kinase 15 (Homo sapiens), sequence (Q8TD08 whole entry): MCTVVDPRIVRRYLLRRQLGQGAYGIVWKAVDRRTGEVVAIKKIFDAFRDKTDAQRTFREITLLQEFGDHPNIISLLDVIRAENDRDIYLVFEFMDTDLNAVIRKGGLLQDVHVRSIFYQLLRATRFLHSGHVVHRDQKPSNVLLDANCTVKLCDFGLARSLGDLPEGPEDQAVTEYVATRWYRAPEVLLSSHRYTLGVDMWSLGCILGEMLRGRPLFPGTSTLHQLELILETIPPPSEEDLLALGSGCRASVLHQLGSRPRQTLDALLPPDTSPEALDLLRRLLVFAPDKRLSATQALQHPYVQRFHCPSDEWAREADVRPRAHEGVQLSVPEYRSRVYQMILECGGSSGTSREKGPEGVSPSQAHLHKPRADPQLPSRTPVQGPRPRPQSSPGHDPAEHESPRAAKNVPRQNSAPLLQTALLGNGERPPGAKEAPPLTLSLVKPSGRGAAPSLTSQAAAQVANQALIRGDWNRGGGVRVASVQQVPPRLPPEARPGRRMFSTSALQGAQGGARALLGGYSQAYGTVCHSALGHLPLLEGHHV
Serine/threonine-protein kinase WNK1 (Homo sapiens), sequence (Q9H4A3 whole entry, looked up): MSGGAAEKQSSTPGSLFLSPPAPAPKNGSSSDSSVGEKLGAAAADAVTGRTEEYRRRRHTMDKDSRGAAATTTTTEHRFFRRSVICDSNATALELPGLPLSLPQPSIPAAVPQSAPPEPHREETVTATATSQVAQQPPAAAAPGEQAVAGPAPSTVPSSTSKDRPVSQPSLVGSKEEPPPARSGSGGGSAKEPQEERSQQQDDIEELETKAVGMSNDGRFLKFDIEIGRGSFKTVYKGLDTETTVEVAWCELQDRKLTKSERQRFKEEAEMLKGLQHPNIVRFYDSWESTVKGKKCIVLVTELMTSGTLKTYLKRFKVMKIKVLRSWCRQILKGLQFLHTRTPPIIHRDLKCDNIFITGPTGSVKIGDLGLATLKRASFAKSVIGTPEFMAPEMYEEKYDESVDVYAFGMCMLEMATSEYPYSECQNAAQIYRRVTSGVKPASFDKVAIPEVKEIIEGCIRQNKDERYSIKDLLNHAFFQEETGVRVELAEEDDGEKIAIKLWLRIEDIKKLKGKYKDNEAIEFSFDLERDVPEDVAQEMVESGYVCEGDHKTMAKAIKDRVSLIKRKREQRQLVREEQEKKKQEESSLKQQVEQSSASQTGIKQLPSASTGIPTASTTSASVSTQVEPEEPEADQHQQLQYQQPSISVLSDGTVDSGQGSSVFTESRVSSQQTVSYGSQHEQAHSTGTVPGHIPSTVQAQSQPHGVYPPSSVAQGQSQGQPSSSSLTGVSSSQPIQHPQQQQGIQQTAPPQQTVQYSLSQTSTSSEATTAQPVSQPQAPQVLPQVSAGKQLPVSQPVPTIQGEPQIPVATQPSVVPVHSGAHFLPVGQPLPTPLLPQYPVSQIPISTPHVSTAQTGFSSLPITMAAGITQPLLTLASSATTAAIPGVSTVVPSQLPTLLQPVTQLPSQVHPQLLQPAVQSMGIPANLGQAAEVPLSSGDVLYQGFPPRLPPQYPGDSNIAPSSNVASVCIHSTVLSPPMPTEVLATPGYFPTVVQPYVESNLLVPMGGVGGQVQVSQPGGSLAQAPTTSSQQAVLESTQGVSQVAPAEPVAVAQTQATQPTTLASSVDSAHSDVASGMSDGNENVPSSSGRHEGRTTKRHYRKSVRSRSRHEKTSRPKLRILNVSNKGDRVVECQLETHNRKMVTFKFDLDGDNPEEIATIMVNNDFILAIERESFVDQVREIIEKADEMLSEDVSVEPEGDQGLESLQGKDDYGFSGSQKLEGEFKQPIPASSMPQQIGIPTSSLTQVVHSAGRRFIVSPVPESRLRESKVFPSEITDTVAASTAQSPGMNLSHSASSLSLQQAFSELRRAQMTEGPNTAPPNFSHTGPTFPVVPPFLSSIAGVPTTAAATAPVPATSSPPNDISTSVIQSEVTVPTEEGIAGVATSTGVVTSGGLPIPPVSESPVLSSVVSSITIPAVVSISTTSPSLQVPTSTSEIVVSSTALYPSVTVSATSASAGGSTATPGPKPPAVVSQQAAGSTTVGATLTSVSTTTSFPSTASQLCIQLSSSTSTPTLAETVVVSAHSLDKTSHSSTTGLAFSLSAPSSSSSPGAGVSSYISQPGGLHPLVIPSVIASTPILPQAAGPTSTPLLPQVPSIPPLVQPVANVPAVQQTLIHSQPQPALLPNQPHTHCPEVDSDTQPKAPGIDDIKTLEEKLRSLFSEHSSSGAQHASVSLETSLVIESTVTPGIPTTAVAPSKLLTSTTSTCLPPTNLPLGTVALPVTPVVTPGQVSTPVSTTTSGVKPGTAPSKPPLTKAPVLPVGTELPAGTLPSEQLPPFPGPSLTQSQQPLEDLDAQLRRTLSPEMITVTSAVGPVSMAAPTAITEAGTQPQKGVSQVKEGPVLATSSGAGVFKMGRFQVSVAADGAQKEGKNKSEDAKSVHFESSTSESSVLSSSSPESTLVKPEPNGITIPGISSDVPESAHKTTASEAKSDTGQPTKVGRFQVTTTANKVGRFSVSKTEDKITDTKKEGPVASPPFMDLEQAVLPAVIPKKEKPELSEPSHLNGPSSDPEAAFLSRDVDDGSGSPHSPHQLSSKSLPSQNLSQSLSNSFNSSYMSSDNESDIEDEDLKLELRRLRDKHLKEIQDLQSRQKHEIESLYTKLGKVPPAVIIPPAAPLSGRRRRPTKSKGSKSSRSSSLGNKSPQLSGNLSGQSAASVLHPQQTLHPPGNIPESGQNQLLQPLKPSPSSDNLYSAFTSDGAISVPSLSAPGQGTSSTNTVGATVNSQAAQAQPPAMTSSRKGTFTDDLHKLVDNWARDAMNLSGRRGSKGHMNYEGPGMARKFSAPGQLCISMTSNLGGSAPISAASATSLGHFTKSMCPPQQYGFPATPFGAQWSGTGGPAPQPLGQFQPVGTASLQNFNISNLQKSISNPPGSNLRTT
TGF-beta receptor type-2 (Homo sapiens), sequence (P37173 whole entry): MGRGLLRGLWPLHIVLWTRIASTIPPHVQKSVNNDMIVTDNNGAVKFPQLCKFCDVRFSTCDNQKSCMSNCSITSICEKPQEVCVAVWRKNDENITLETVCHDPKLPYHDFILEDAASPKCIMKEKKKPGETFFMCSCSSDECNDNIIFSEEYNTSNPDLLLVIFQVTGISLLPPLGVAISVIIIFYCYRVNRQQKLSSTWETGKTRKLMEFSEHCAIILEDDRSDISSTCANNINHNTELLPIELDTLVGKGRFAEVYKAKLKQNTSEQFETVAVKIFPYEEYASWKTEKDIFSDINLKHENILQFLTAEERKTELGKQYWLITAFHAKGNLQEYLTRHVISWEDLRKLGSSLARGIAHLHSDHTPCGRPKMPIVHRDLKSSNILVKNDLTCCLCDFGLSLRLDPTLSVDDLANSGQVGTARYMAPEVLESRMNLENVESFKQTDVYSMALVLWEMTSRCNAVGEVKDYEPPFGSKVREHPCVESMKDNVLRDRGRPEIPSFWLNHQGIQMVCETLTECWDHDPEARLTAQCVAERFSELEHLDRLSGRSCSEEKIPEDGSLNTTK
Kappa-type opioid receptor (Homo sapiens), sequence (P41145 whole entry): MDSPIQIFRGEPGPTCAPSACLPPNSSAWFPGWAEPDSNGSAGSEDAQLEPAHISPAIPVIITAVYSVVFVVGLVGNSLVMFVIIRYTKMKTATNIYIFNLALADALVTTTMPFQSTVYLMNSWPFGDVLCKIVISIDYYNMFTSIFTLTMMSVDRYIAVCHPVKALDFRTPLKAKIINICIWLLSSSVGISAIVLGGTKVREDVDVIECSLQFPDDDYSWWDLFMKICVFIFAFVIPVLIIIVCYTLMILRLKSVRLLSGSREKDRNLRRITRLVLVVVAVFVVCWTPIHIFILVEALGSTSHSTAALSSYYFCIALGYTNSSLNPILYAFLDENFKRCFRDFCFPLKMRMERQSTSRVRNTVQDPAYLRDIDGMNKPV

CCC(=O)N[C@@H]1CC[C@H](C(=O)N(C)c2ccc(-c3nc4ccccc4o3)cc2)C1 [BI 99990]
residual activity [1]: 100%
residual activity [2]: 91%
residual activity [3]: 100%
residual activity [4]: 100%
residual activity [5]: 89%
residual activity [6]: 100%
residual activity [7]: 97%
residual activity [8]: 100%
residual activity [9]: 100%
residual activity [10]: 100%
residual activity [11]: 100%
residual activity [12]: 100%
residual activity [13]: 100%
residual activity [14]: 100%
residual activity [15]: 100%
residual activity [16]: 89%
residual activity [17]: 76%
residual activity [18]: 100%
residual activity [19]: 60%
residual activity [20]: 100%
residual activity [21]: 100%
residual activity [22]: 100%
residual activity [23]: 100%
residual activity [24]: 98%
residual activity [25]: 100%
residual activity [26]: 77%
residual activity [27]: 75%
residual activity [28]: 93%
residual activity [29]: 100%
residual activity [30]: 86%
residual activity [31]: 100%
residual activity [32]: 100%
residual activity [33]: 100%
residual activity [34]: 65%
residual activity [35]: 100%
residual activity [36]: 100%
residual activity [37]: 100%
residual activity [38]: 100%
residual activity [39]: 100%
residual activity [40]: 100%
residual activity [41]: 100%
residual activity [42]: 100%
inhibition [43]: 20.4%
inhibition [44]: -2.55%
inhibition [45]: 38.3%

CCC(=O)N[C@H]1CC[C@@H](C(=O)N(C)c2ccc(-c3nc4ccccc4o3)cc2)C1 [BI 99179]
residual activity [1]: 94%
residual activity [2]: 99%
residual activity [3]: 100%
residual activity [4]: 91%
residual activity [5]: 74%
residual activity [6]: 94%
residual activity [7]: 78%
residual activity [8]: 100%
residual activity [9]: 91%
residual activity [10]: 95%
residual activity [11]: 91%
residual activity [12]: 100%
residual activity [13]: 100%
residual activity [14]: 76%
residual activity [15]: 100%
residual activity [16]: 100%
residual activity [17]: 77%
residual activity [18]: 100%
residual activity [19]: 52%
residual activity [20]: 100%
residual activity [21]: 100%
residual activity [22]: 95%
residual activity [23]: 100%
residual activity [24]: 98%
residual activity [25]: 90%
residual activity [26]: 90%
residual activity [27]: 74%
residual activity [28]: 94%
residual activity [29]: 99%
residual activity [30]: 99%
residual activity [31]: 100%
residual activity [32]: 100%
residual activity [33]: 100%
residual activity [34]: 78%
residual activity [35]: 100%
residual activity [36]: 89%
residual activity [37]: 75%
residual activity [38]: 32%
residual activity [39]: 95%
residual activity [40]: 100%
residual activity [41]: 92%
residual activity [42]: 100%
inhibition [43]: -6.54%
inhibition [44]: -5.31%
inhibition [45]: 9.78%
